Results on eight compounds are retold here after patent US8362033B1, “Compounds and methods to dysregulate CA2+ homeostasis for cancer treatment” (University of South Florida, priority 2008, dated 2013).

Where two headings read alike, the source gives them in different places.

One assay concerns 8226 cells. Kind of assay: Fura-2 intracellular Ca2+ fluorometry in 8226 cells. In kind it is cell-based, human.
The subject of a further assay is 8226/R5 cells. Kind of assay: Fura-2 intracellular Ca2+ fluorometry in tipifarnib-resistant 8226/R5 cells. In kind it is cell-based, human. The note with it: 5 μM tipifarnib with 100 μM 2-APB.
Assay [1] concerns U937 cells. In words: MTT cytotoxicity / growth rate assay. In kind it is cell-based. The method, then: Cytotoxicity analysis was determined by using the 3-(4,5-dimethylthiazol-2-yl)-2,5-diphenyltetrazolium bromide (MTT) dye reduction assay as previously described (Damiano J S, et al. Cell adhesion mediated drug resistance (CAM-DR): role of integrins and resistance to apoptosis in human myeloma cell lines. Blood. 1999 Mar. 1; 93(5):1658-67). For all cytotoxicity studies cells were exposed to both calcium modulating agents and tipifarnib simultaneously for 72 hours. After 72 hours at 37° C., 50 μl of MTT (Sigma Chemical) was added to each well and cells were incubated for an additional four hours. Plates were spun for 5 minutes at 1200 rpm in a Sorvall RT6000D table top centrifuge (Asheville, N.C.), supernatants were removed, and water-insoluble product was dissolved in 100 μl of 100% DMSO. Plates were shaken for 30 seconds and absorbance read at 540 nm on a Wallac Victor-2 1420 Multilabel Counter (PerkinElmer, Torrance, Calif.). All experiments were done in triplicate.
The effects of the Ca^2+ channel inhibition, using La^3+ and Gd^3+, were tested on survival of U937 cells.

For another assay, the system named is TRPM2. The note with it: cited from earlier work.
The next assay has as its target T1, TRPM7 (Homo sapiens, UniProt Q96QT4).
T1 construct: host or cells: HEK-293 (heterologous expression, in the cited studies)
The note with it: cited from earlier work; for Inhibition of TRPM7 channels at 10 μM / Concentration required to inhibit TRPM7: HEK-293 cells.

The target in another assay is Orai 1 channels (Homo sapiens, UniProt Q96D31). The note with it: endogenously and exogenously expressed; cited from earlier work.
Chain of Orai 1 channels (Q96D31 whole entry): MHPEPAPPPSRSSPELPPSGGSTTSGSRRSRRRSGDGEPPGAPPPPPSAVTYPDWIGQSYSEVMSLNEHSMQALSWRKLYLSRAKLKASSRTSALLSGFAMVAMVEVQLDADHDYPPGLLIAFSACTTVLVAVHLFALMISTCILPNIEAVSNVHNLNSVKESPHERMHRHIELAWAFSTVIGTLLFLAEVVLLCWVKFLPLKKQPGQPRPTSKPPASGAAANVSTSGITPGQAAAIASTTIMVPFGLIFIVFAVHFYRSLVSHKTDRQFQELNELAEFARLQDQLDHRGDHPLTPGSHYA
A further assay deals with Orai2 (Homo sapiens, UniProt Q96SN7). The note with it: cited from earlier work.
Chain of Orai2 (Q96SN7 whole entry, species assumed): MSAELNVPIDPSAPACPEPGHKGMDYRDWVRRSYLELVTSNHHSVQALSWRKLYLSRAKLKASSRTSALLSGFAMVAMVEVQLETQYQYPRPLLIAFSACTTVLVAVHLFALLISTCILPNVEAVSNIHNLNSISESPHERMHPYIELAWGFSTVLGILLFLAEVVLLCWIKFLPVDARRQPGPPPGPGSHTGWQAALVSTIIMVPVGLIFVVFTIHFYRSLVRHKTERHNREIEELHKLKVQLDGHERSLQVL
In a further assay the target is Orai3 channels (Homo sapiens, UniProt Q9BRQ5). The note with it: up to 200 μM; cited from earlier work.
For assay [2], the system named is U937 cells. Kind of assay: Cell death by ER stressors in suspension or fibronectin-adhered U937 cells. The format is cell-based. The note with it: for Cell death in suspension and fibronectin adhered tumor cells: FIGS. 2(a)-(c); for Difference in viability between suspension and fibronectin-adherent cells: concentration range tested. The method, then:
FIGS. 2(a)-(c) are graphs showing agents which evoke ER stress overcome cell adhesion mediated drug resistance in U937 cells. Percent of specific cell death induced in U937 cells in suspension (Suspension) or following adhesion to plates coated in fibronectin (Fibronectin) as a result of incubation in (A) tunicamycin, (B) thapsigargin, or (C) brefeldin A at the indicated concentrations.

Assay [3] has as its system U937 cells. In words: Fura-2 intracellular Ca2+ fluorometry in adhered U937 cells. The note with it: 5 μM tipifarnib, 10 μM FTI-277, 10 μM FTI-2153.
Experimental: (§1) Fura-2 loading was carried out incubating the plated cells for 1 hour at room temperature in physiological saline solution (PSS) consisting of (in mM): 140 NaCl, 3 KCl, 2.5 CaCl2, 1.2 MgCl2, 7.7 glucose and 10 HEPES (pH to 7.2 with NaOH), which also contained 1 μM of the membrane permeable ester form of fura-2, acetoxymethylester (fura-2 AM) fura-2 acetoxymethylester (fura-2 AM, +0.1% DMSO) and 0.1% dimethyl sulfoxide (DMSO). The coverslips were then washed in PSS (fura-2-AM free) prior to the experiments being carried out.
(§2) A DG-4 high-speed wavelength switcher (Sutter Instruments Co., Novato, Calif.) was used to apply alternating excitation light, and fluorescent emission was captured using a Sensicam digital CCD camera (Cooke Corporation, Auburn Hills, Mich.) and recorded with Slidebook 3.0 software (Intelligent Imaging Innovations, Denver, Colo.).
(§3) Therefore, the effects of tipifarnib on intracellular Ca^2+ concentrations in tumor cells were studied in adhered U937 leukemic cells using fura-2 mediated Ca^2+ fluorometry.
Assay [4] relates to U937 cells. The note with it: 5 μM tipifarnib, adhered U937 cells, p<0.001.
Experimental: as §1, §2, §3

T1 sequence (Q96QT4 whole entry, species assumed): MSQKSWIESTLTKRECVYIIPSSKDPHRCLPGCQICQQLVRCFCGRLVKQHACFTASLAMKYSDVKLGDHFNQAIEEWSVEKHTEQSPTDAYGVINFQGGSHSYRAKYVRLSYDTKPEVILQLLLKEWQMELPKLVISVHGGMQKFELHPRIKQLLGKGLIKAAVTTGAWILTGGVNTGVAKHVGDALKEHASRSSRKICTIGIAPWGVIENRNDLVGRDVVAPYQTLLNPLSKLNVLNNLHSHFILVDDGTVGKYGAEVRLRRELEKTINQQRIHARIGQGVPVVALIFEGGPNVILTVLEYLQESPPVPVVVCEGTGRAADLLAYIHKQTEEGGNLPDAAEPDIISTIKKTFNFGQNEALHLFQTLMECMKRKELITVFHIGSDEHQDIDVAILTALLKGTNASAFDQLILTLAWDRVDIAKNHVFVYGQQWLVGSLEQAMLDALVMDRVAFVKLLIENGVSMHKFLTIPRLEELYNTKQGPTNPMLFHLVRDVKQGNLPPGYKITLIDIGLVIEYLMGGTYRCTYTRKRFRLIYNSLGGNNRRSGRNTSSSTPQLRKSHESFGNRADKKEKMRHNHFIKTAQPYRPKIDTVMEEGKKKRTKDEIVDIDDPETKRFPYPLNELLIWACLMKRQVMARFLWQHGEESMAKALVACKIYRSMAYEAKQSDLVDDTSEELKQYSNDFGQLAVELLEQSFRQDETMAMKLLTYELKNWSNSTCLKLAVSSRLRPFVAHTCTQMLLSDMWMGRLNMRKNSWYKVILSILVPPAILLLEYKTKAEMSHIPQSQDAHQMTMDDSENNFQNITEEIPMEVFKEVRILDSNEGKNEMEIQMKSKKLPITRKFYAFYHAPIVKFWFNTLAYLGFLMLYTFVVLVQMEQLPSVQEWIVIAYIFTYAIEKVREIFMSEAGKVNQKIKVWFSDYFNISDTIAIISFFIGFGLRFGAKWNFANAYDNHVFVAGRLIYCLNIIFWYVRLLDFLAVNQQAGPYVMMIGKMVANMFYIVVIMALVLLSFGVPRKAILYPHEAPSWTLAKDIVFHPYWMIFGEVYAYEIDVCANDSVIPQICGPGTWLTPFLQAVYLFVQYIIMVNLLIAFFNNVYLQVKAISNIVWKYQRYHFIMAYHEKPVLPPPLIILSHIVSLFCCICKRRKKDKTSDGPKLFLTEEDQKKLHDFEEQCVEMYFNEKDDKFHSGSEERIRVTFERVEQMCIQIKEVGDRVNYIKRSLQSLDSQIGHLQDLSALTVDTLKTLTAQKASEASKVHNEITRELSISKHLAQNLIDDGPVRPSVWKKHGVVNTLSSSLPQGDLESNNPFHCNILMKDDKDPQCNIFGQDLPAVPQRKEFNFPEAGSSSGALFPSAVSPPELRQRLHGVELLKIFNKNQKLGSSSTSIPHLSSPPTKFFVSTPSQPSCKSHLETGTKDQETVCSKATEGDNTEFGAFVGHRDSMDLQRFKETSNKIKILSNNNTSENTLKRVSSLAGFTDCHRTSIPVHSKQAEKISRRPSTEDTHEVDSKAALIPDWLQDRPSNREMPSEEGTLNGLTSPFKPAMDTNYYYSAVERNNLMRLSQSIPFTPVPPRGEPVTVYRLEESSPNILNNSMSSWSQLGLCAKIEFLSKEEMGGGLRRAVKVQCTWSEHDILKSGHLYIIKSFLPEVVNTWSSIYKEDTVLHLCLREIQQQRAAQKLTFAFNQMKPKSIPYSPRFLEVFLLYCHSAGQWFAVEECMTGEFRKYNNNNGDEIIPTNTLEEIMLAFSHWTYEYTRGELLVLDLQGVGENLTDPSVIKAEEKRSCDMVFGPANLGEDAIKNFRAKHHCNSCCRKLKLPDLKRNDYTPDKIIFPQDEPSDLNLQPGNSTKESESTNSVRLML
Experimental for 8226 cells: as §1, §2
Experimental for 8226/R5 cells: as §1, §2

Turning to `NCCOB(c1ccccc1)c1ccccc1` [2-APB, 2-aminoethoxydiphenyl borate], the “Amplification of tipifarnib-evoked increase in [Ca2+]i by 2-APB” value in the assay with 8226 cells (8226 cells, 5 μM tipifarnib with 100 μM 2-APB) is approximately 400%; in the assay with 8226/R5 cells, approximately 250%. Further, in the assay on U937 cells [1], the “Effect of modulator on tipifarnib-induced growth inhibition / cell survival” value is reported as “enhanced cell death”. In addition, the “Block of TRPM2 channels at 150 μM (second study)” value in the assay with TRPM2 (HEK-293 cells, 150 μM 2-APB) is reported as “not blocked”. The IC50 in the assay on TRPM2 (heterologously expressed in HEK-293 cells, read-out: IC50 for block of TRPM2 channels) is 1000 nM. Further, the “Block of TRPM7-evoked currents” value at TRPM7 (100 μM 2-APB) is approximately 25%. The “Modulation of Orai1 channels by 2-APB” value on Orai 1 channels is listed as “potentiated at concentrations of 2-APB below 5 μM but inhibited by higher concentrations”. Besides, the “Modulation of Orai2 by 2-APB” value on Orai2 is “transient potentiation at concentrations of 2-APB≦20 μM and also blocked by higher concentrations”. Further, at Orai3 channels, the “Modulation of Orai3 channels by 2-APB” value is “potentiated by 2-APB even at 50 μM and do not seem to be blocked by concentrations as high as 200 μM”.

Regarding tunicamycin, in the assay on U937 cells [2], the “Cell death in suspension and fibronectin adhered tumor cells” value (shortened to “Cell death”) is on record as “dose dependent increase in cell death”; the “Difference in viability between suspension and fibronectin-adherent cells” value (“Difference” below) was “no significant difference”.

With `COC(=O)[C@H](CCSC)NC(=O)c1ccc(NC[C@@H](N)CS)cc1-c1ccccc1` [FTI-277], in the assay on U937 cells [3], the “Elevation of [Ca2+]i” value was “failed to stimulate elevations in [Ca^2+]i”.

For `[Cl][La]([Cl])[Cl]` [La^3+, lanthanum chloride], the “Effect of modulator on tipifarnib-induced growth inhibition / cell survival” value in the assay on U937 cells [1] (U937 cells, MTT, 72 hours, 200 nM La3+, Gd3+ 100, ruthenium red 100 nM, 2-APB 5 μM and 100 μM) was “statistically significant increase in survival of U937 cells”. In addition, the “Inhibition of TRPM2 channels” value in the assay with TRPM2 (La3+ ≦100 μM) was “not inhibited”. At TRPM7, the “Inhibition of TRPM7 channels at 10 μM” value was “failed to inhibit TRPM7 channels” and the “Concentration required to inhibit TRPM7” value was 1 mM.

On to `[Gd+3]` [Gd^3+], for which, at TRPM7, the “Inhibition of TRPM7 channels at 10 μM” value is reported as “failed to inhibit TRPM7 channels” and the “Concentration required to inhibit TRPM7” value is on record as 1 mM.

With `C[C@H]1CCC/C=C/[C@@H]2C[C@H](O)C[C@H]2[C@H](O)/C=C/C(=O)O1` [Brefeldin A], in the assay with U937 cells [2], the “Cell death” value is “dose dependent increase in cell death”; the “Difference” value is “no significant difference”.

`Cn1cncc1[C@@](N)(c1ccc(Cl)cc1)c1ccc2c(c1)c(-c1cccc(Cl)c1)cc(=O)n2C` [tipifarnib, Tipifarnib]: in the assay with 8226 cells (5 µM), the “Amplitude of the [Ca2+]i response” value worked out at 215 ± 17 nM. Besides, the “Change in [Ca2+]i in 8226 cells, greater than in 8226/R5 cells” value with 8226 cells (5 μM tipifarnib) is recorded as more than 250%. In addition, the “Increase in [Ca2+]i relative to vehicle alone (DMSO)” value in the assay on U937 cells [4] was “more than 5 fold”.

As for `C/C=C(/C)C(=O)O[C@H]1C(C)=C2[C@H]([C@@H]1OC(=O)CCCCCCC)[C@@](C)(OC(C)=O)C[C@H](OC(=O)CCC)[C@@]1(O)[C@H]2OC(=O)[C@@]1(C)O` [thapsigargin], in the assay on U937 cells [2], the “Cell death” value is listed as “dose dependent increase in cell death”; the “Difference” value is “no significant difference”.

The IC50 is the concentration that gives 50% inhibition.
